Measurements taken from patent publication US6808877B2, “Ligands for FPR class receptors that induce a host immune response to a pathogen or inhibit HIV infection” (priority 2000, dated 2004).

Experiments:
HIV-1BAL-env = type: cell-based; conditions: HOS/CD4/CCR5 cells co-expressing FPR
CCR5 [1] = type: cell-based, human; conditions: HOS/CD4/CCR5 cells co-expressing FPR
HIVJRFL = type: cell-based, HIV-1; conditions: peripheral blood monocyte/macrophages
[2] = test system: monocyte tropic strains of HIV-1; type: cell-based; conditions: FPR-transfected HOS cells
CCR5 [3] = experiment: Surface expression of CCR5 on monocytes by flow cytometry; type: cell-based, human; conditions: FITC-anti-CCR5 2D7
Description: The change of surface expression of CCR5 on monocytes was monitored by FACS analyses (courtesy of L. […] The cells were then washed twice with DPBS containing 2% BSA and fixed with 1% Paraformaldehyde (Sigma). The fluorescence was measured by flow cytometer (Becton Dickinson, San Jose, Calif.). Results are presented as the percentage of cells stained with anti-CCR5 antibody.

CXCR4 = CXCR4 (Homo sapiens, UniProt P61073); experiment: Interaction with CXCR4
neutrophils = experiment: Neutrophil chemotaxis, 48-well micro-chemotaxis chamber; type: cell-based; conditions: human neutrophils
monocytes = experiment: Monocyte chemotaxis, 48-well micro-chemotaxis chamber; type: cell-based, human; conditions: human monocytes

Sequence of CXCR4 (P61073 whole entry): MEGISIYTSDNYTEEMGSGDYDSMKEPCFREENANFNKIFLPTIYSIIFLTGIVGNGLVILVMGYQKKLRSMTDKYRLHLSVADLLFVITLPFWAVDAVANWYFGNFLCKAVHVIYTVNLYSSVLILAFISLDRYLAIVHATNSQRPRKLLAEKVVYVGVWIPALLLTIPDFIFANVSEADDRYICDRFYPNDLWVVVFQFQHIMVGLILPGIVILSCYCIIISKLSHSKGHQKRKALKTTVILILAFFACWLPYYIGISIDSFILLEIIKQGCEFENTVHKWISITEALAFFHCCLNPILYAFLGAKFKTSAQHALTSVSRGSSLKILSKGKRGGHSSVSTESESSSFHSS

Compound | HIV-1BAL-env-mediated fusion (HIV-1BAL-env) | phosphorylation of CCR5 (CCR5 [1]) | fusion and infection, syncytia formation and p24 production (HIVJRFL) | fusion and infection, syncytia formation and p24 production [2] | expression of CCR5 on the cell surface (CCR5 [3]) | interaction with CXCR4 (CXCR4) | chemotactic activity / migration (neutrophils) | chemotactic activity / migration (monocytes)
CSCC[C@H](NC=O)C(=O)N[C@@H](CC(C)C)C(=O)N[C@@H](Cc1ccccc1)C(=O)O [fMLP, N-formyl-methionyl-leucyl-phenylalanine] | markedly inhibited | induced an increase in phosphorylation of CCR5 | significantly reduced the fusion and infection | significantly reduced the fusion and infection | markedly downregulated | – | – | –
TRPNYNKRKRIHIGPGRAFYTTKNIIGTIRQAH-NH2 [V3 peptide] | – | – | – | – | – | did not interact with CXCR4 | potent chemoattractant | potent chemoattractant
